Experimental data taken from patent publication US9707239B2, “Compounds that modulate oxidative stress” (vTv Therapeutics LLC, priority 2011, dated 2017).
Entries after “also recorded” stand apart in the source; their conditions may differ.

Columns and labels:
[1] = tested on: HMOX1; assay: mRNA expression (Quantigene Plex) in NHLF cells: HMOX1; assay type: cell-based, human; conditions: Table 6, 6 h, mRNA normalized to GAPDH, above DMSO treated cells
Method: (§1) Secondary growth of NHLF cells were used for all assays. Cell were thawed and then placed into culture in T225 flasks. The cells were grown to 80% confluency and harvested by washing once with HEPES buffered saline solution and then trypsinizing. Equal numbers (7×10^3 cells per well) of NHLF cells were plated in 96 well tissue culture plates (Corning). Cells were incubated overnight in FGM-2 medium prior to exposure to compound. Cells were treated with either DMSO or a compound as described below for 6 h. Preparation of cell lysates was carried out according to instructions using the Quantigene Reagent system 2.0 protocol (Panomics). mRNA induction was detected from cell lysate using the Quantigene Plex 2.0 Assay Kit (Panomics) on the Luminex platform (BIO-RAD). Expression of GAPDH mRNA was used as the internal control for the Quantigen Plex 2.0 Assay. The data in Tables 5 and 6 represents the fold change of target mRNA expression, normalized to control values, above DMSO treated cells.

[2] = tested on: NQO1; assay: mRNA expression (Quantigene Plex) in NHLF cells: NQO1; assay type: cell-based, human; conditions: Table 6, 6 h, mRNA normalized to GAPDH, above DMSO treated cells
Method: as §1

[3] = tested on: TXNRD1; assay: mRNA expression (Quantigene Plex) in NHLF cells: TXNRD1; assay type: cell-based, human; conditions: Table 6, 6 h, mRNA normalized to GAPDH, above DMSO treated cells
Method: as §1

[4] = tested on: HSPA6; assay: mRNA expression (Quantigene Plex) in NHLF cells: HSPA6; assay type: cell-based, human; conditions: Table 6, 6 h, mRNA normalized to GAPDH, above DMSO treated cells
Method: as §1

[5] = tested on: ICAM; assay: mRNA expression (Quantigene Plex) in NHLF cells: ICAM; assay type: cell-based, human; conditions: Table 6, 6 h, mRNA normalized to GAPDH, above DMSO treated cells
Method: as §1

[6] = tested on: GADD45A; assay: mRNA expression (Quantigene Plex) in NHLF cells: GADD45A; assay type: cell-based, human; conditions: Table 6, 6 h, mRNA normalized to GAPDH, above DMSO treated cells
Method: as §1

[7] = tested on: NHLF cells; assay: ROS measurements (H2DCF-DA imaging); assay type: cell-based, human; conditions: 1 hr; for ROS production (in words): cell-by-cell imaging, FIG. 3A/3B; for elevation of ROS production: relative to untreated controls, FIG. 3A
Method: Secondary growth of NHLF cells were used for all assays. Cells were cultured as above. Cells were plated into 384-well BD-Optilux Plates at 2,000 cells/well and cultured overnight at 37° C. and 5% CO2. The following day, cell were washed and 2,7-dihydrodichlorofluorescin diacetate (H2DCF-DA), 10 μM ferric ammonium citrate (FAC), and Hoechst stain were added to cells for 30 min. The cells were washed once with PBS to remove any H2DCF-DA not taken up by cells. Test compounds were prepared in FBM-2 media at the desired concentrations. The plates and stain-treated cells were incubated with test compounds for 1 hr at 37° C. and 5% CO2. Following the incubation period, ROS generation was determined by imaging the cells on a GE INcell 1000 imager (Hoechst Ex. 360 Em. 535; H2DCF-DA 488 Ex. 480 Em. 535). ROS levels were determined and quantified using GE IN Cell Analyzer Software.
In addition to gene profiling, the requirement for ROS generation or chemical reactivity was tested. ROS generation was measured using an automated imaging technique. Compound 13 as well as two other compounds that were found in the screening set were tested in this experiment. Untreated NHLF cells, NHLF cells treated with the HMOX1 inducer CoPP (a negative control), and NHLF cells treated with curcumin or celestrol (positive controls) were included as controls. […] Further experiments were also conducted on chemical derivatives of Compound 13. In those experiments, all compounds tested were found not to induce an elevation of ROS levels in the cell (FIG. 3B). Thus, Compound 13 and related compounds represent a class of agents that elevate HMOX1 production without elevating ROS production.

[8] = tested on: Keap1; assay: HMOX1 induction after Keap1 silencing (shRNA); assay type: cell-based, human; conditions: NHLF cells, FIG. 6
Method: Normal human lung fibroblasts were plated in a 12-well tissue culture dish at 16,000 cells/well and allowed to attach overnight. Regular medium was then replaced with 200 μl of fresh growth medium containing 8 μg/ml hexadimethrine bromide (polybrene). Lentiviral transduction particles were then added in the following amounts: Control shRNA (1.1×10^7 TU/ml, Sigma, cat# SHC002V), 15 μl for an MOI of 10; KEAP-1 shRNA (6.3×10^6 TU/ml, Sigma, cat# SHCLNV-TRCN0000046092), 63 μl for an MOI of 20. After 4 hours in the cell culture incubator, another 200 μl of growth medium was added on top of the original volume. Cells were replenished the next day with fresh complete growth medium and were allowed to recover for 24 hours, after which selection medium was applied (complete medium with 1 μg/ml puromycin).
Another method of testing the role of the Nrf2 regulatory pathway on compound activity is to determine the effect of silencing Keap1 on HMOX1 gene expression. It is known that deleting Keap1 will result in the induction of Nrf2 dependent genes but not, to any significant degree, HMOX1. The proposed explanation for this observation is that HMOX1 requires the concomitant derepression of Bach1 activity and that this event is more dependent on active processes (e.g., heme binding, changes in redox potential of the cell, phosphorylation of Bach1, etc.). We therefore tested the ability of Compound 13 and tool compounds to induce HMOX1 in the presence of silencing of Keap1 in normal human lung fibroblasts.
Normal human lung fibroblasts were tested with DMSO, CoPP, Compound 13, and two derivatives including Compound 4 and Compound 8. An electrophile, Compound 1, was also included in the test set. […] On the other hand, induction of HMOX1 by the electrophile Compound 1 was inhibited.

[9] = tested on: NHLF cells; assay: Cytoprotection of cisplatin (CDDP)-treated NHLF cells (propidium iodide staining); assay type: cell-based
Method: (§2) A key outcome of Bach1 derepression and Nrf2 activation are the induction of cytoprotective genes. A method to test such cytoprotection is to assess the ability of a compound to protect normal human cells such as lung fibroblasts from toxicity due to cisplatin exposure. A model of cellular cytoprotection was established whereby normal human lung fibroblasts were treated with Bach1 modulators and then subsequently exposed to cisplatin. NHLF cells are very sensitive to cisplatin exposure; following a dose of 200 uM cisplatin, >90% of NHLF cells are propidium iodide positive, a measure of cell death.

[10] = tested on: HMOX1; assay: Effect of NAC on compound induction of HMOX gene expression; assay type: cell-based, human; conditions: NHLF cells pretreated with 5 mM NAC 1 hr, compound 6 h, FIG. 4
Method: NHLF cells were grown to 80% confluency and harvested by washing once with HEPES and then trypsinizing. Equal numbers (7×10^4 cells per well) of NHLF cells were plated in 96 well tissue culture (Corning) plates. Cells were incubated overnight in FGM-2 medium prior to exposure to compound. Cells were pretreated with 5 mM N-acetyl cysteine for 1 hr. Cells were treated with either DMSO or compound for 6 h. Preparation of cell lysates was carried out according to Quantigene Reagent system 2.0 protocol (Panomics). Heme oxygenase mRNA induction was detected from cell lysate using the Quantigene Plex 2.0 Assay Kit (Panomics) on the Luminex platform (BIO-RAD). Expression of GAPDH mRNA was used as the internal control for the Quantigen Plex 2.0 Assay. Heme oxygenase data represents the fold change, normalized to control values, above DMSO treated cells.
A further test of the hypothesis that Compound 13 induces HMOX1 with minimal alteration of cellular redox levels or chemical reactivity was carried out by treating cells with N-acetyl cysteine (NAC). This compound acts to restore cellular glutathione levels and thus prevent oxidative stress. The degree to which NAC can suppress HMOX1 induction is an indicator of the amount of chemical reactivity or ROS stress that a compound is imposing on the cell and thus activating phase II gene transcription. […] Coupled with the data shown in FIG. 3, it is concluded that Compound 13 induces HMOX1 with minimal elevation of ROS or NAC-sensitive chemical reactivity.

[11] = tested on: HMOX1; assay: HMOX1 induction in NHLF cells in the cisplatin cytoprotection model; assay type: cell-based, human; conditions: compound 24 hours prior to cisplatin, FIG. 8
Method: as §2

SMILES | HMOX1 (fold induction) [1] [fold induction] | NQO1 (fold induction) [2] [fold induction] | TXNRD1 (fold induction) [3] [fold induction] | HSPA6 (fold induction) [4] [fold induction] | ICAM1 (fold induction) [5] [fold induction] | GADD45A (fold induction) [6] [fold induction] | ROS production (in words) [7] | other results
COC(=O)c1ccc2[nH]c(Nc3nc4ccccc4s3)nc2c1 [Compound 4, 2-(Benzothiazol-2-ylamino)-1H-benzoimidazole-5-carboxylic acid methyl ester] | 56.15 | 1.85 | 1.74 | 1.08 | 0.77 | 2.00 | no demonstrable increase in ROS production | HMOX1 induction in the presence of Keap1 silencing [8]: unaffected in their ability to induce HMOX1 in the presence of Keap1 silencing; also recorded: behaves similarly to CoPP induction
CCOC(=O)/C=C/c1cnc2ccccc2c1S(=O)(=O)C1CCOC1C (stereo not drawn) [Compound 1, (E)-3-[4-(2-Methyl-tetrahydro-furan-3-sulfonyl)-quinolin-3-yl]-acrylic acid ethyl ester] | – | – | – | – | – | – | – | HMOX1 induction in the presence of Keap1 silencing [8]: inhibited
N.N.[Cl][Pt][Cl] [cisplatin, reference compound] | – | – | – | – | – | – | – | NHLF cells propidium iodide positive (cell death) ([9]; 200 uM cisplatin): > 90%
CC1OCCC1S(=O)(=O)c1c(-c2ccc(C(F)(F)F)cc2)cnc2ccccc12 (stereo not drawn) [Compound 3, 4-(2-Methyl-tetrahydro-furan-3-sulfonyl)-3-(4-trifluoromethyl-phenyl)-quinoline] | 45.17 | 1.69 | 1.47 | 2.71 | 1.47 | 1.37 | no demonstrable increase in ROS production | –
CC1=C(O)C(=O)C=C2C1=CC=C1[C@@]2(C)CC[C@@]2(C)[C@@H]3C[C@](C)(C(=O)O)CC[C@]3(C)CC[C@]12C [celestrol, reference compound] | – | – | – | – | – | – | – | elevation of ROS production [7]: ~2 fold; effect of N-acetyl cysteine (NAC) on HMOX1 induction [10]: inhibited nearly fully by NAC; also recorded: fully suppressed in the presence of NAC
COc1cc(/C=C/C(=O)CC(=O)/C=C/c2ccc(O)c(OC)c2)ccc1O [curcumin, reference compound] | – | – | – | – | – | – | – | elevation of ROS production [7]: approximately 3 fold; effect of N-acetyl cysteine (NAC) on HMOX1 induction [10]: inhibited nearly fully by NAC; also recorded: fully suppressed in the presence of NAC
Cc1nc(Nc2nc3cc(C(=O)NCCOCCN)ccc3[nH]2)sc1C [Compound 11, 2-(4,5-Dimethyl-thiazol-2-ylamino)-1H-benzoimidazole-5-carboxylic acid [2-(2-amino-ethoxy)-ethyl]-amide] | – | – | – | – | – | – | – | protection against cisplatin toxicity ([9]; NHLF cells, compound 24 hours prior to cisplatin exposure, FIG. 8): failed to protect NHLF cells against cisplatin toxicity; also recorded: failed to protect cells from CDDP-mediated cytotoxicity; HMOX1 induction [11]: inactive HMOX1 inducers; also recorded: did not induce HMOX1
COC(=O)[C@]12CCC(C)(C)CC1C1C(=O)C=C3[C@@]4(C)CC(C#N)C(=O)C(C)(C)[C@@H]4CC[C@@]3(C)[C@]1(C)CC2 (stereo partly drawn) [Compound 5, (4aS,6aR,6bS,8aR,12aS)-11-Cyano-2,2,6a,6b,9,9,12a-heptamethyl-10,14-dioxo-1,3,4,5,6,6a,6b,7,8,8a,9,10,11,12,12a,14, 14a,14b-octadecahydro-2H-picene-4a-carboxylic acid methyl ester, reference compound] | 23.97 | 2.01 | 1.83 | 1.60 | 1.16 | 0.89 | no demonstrable increase in ROS production | –
